Measured values: PubChem BioAssay (NCI)
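GI50 is the concentration that inhibits growth by half. Definition used: TGI = concentration required for complete inhibition of growth.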

Columns and labels:
Experiment in all cases: DTP human tumour cell line panel, 384-well format
[1] = system: OVCAR-4 ovarian
[2] = system: SK-MEL-28 melanoma
[3] = system: T-47D breast
[4] = system: M14 melanoma
[5] = system: COLO 205 colon
[6] = system: OVCAR-5 ovarian
[7] = system: SR leukemia
[8] = system: IGROV1 ovarian
[9] = system: MDA-MB-435 melanoma
[10] = system: HCC-2998 colon
[11] = system: SK-MEL-5 melanoma
[12] = system: TK-10 renal
[13] = system: NCI-H460 NSCLC
[14] = system: NCI/ADR-RES ovarian
[15] = system: OVCAR-3 ovarian
[16] = system: A498 renal
[17] = system: UACC-257 melanoma
[18] = system: MALME-3M melanoma
[19] = system: SF-268 CNS
[20] = system: HOP-92 NSCLC
[21] = system: HL-60(TB) leukemia
[22] = system: BT-549 breast
[23] = system: SN12C renal
[24] = system: NCI-H226 lung
[25] = system: RPMI-8226 leukemia
[26] = system: SNB-75 CNS
[27] = system: U251 glioblastoma
[28] = system: SNB-19 CNS
[29] = system: ACHN renal
[30] = system: NCI-H23 lung
[31] = system: LOX IMVI melanoma
[32] = system: HT29 colon
[33] = system: EKVX NSCLC
[34] = system: DU-145 prostate
[35] = system: A549 NSCLC
[36] = system: NCI-H522 lung
[37] = system: NCI-H322M lung
[38] = system: SF-539 CNS
[39] = system: MCF7 breast
[40] = system: MOLT-4 leukemia
[41] = system: HS 578T breast
[42] = system: PC-3 prostate
[43] = system: MDA-MB-468 breast
[44] = system: HCT-15 colon
[45] = system: KM12 colon
[46] = system: MDA-MB-231 breast
[47] = system: OVCAR-8 ovarian
[48] = system: SF-295 CNS
[49] = system: UACC-62 melanoma
[50] = system: HCT-116 colon
[51] = system: HOP-62 NSCLC
[52] = system: CAKI-1 renal
[53] = system: SK-OV-3 ovarian
[54] = system: RXF 393 renal
[55] = system: SW-620 colon
[56] = system: K-562 leukemia
[57] = system: UO-31 renal

CC(C)c1cc(C(=O)N2Cc3ccc(CN4CCN(C)CC4)cc3C2)c(O)cc1O
GI50 [1]: 33.2 nM | TGI [1]: 1700 nM | GI50 [2]: 400 nM | TGI [2]: 17100 nM | GI50 [3]: 172 nM | TGI [3]: 11600 nM | GI50 [4]: 47.9 nM | TGI [4]: 2690 nM | GI50 [5]: 23.7 nM | TGI [5]: 62.9 nM | GI50 [6]: 38.7 nM | TGI [6]: 186 nM | GI50 [7]: 13.8 nM | TGI [7]: 36.8 nM | GI50 [8]: 37.7 nM | TGI [8]: 216 nM | GI50 [9]: 35.3 nM | TGI [9]: 10500 nM | GI50 [10]: 12.4 nM | TGI [10]: 31.7 nM | GI50 [11]: 23.7 nM | TGI [11]: 1330 nM | GI50 [12]: 45 nM | TGI [12]: 856 nM | GI50 [13]: 17.9 nM | TGI [13]: 43.6 nM | GI50 [14]: 166 nM | TGI [14]: 515 nM | GI50 [15]: 34.3 nM | TGI [15]: 93.5 nM | GI50 [16]: 82.2 nM | TGI [16]: 11300 nM | GI50 [17]: 186 nM | TGI [17]: 5190 nM | GI50 [18]: 61.5 nM | TGI [18]: 694 nM | GI50 [19]: 71.1 nM | TGI [19]: 16200 nM | GI50 [20]: 217 nM | TGI [20]: 1600 nM | GI50 [21]: 21.8 nM | TGI [21]: 41.7 nM | GI50 [22]: 32.1 nM | TGI [22]: 528 nM | GI50 [23]: 24.4 nM | TGI [23]: 125 nM | GI50 [24]: 75.8 nM | TGI [24]: 838 nM | GI50 [25]: 40.3 nM | TGI [25]: 156 nM | GI50 [26]: 52.5 nM | TGI [26]: 11600 nM | GI50 [27]: 34.3 nM | TGI [27]: 97.3 nM | GI50 [28]: 76.4 nM | TGI [28]: 710 nM | GI50 [29]: 59.4 nM | TGI [29]: 2840 nM | GI50 [30]: 38.2 nM | TGI [30]: 13300 nM | GI50 [31]: 39.2 nM | TGI [31]: 146 nM | GI50 [32]: 40.5 nM | TGI [32]: 11300 nM | GI50 [33]: 46.1 nM | TGI [33]: 8590 nM | GI50 [34]: 30.3 nM | TGI [34]: 88.7 nM | GI50 [35]: 64.1 nM | TGI [35]: 16800 nM | GI50 [36]: 20.6 nM | TGI [36]: 42.3 nM | GI50 [37]: 84.7 nM | TGI [37]: 4760 nM | GI50 [38]: 40.4 nM | TGI [38]: 10400 nM | GI50 [39]: 37.9 nM | TGI [39]: 11100 nM | GI50 [40]: 19.4 nM | TGI [40]: 35.7 nM | GI50 [41]: 131 nM | TGI [41]: 2330 nM | GI50 [42]: 46.5 nM | TGI [42]: 319 nM | GI50 [43]: 37.1 nM | TGI [43]: 158 nM | GI50 [44]: 32.2 nM | TGI [44]: 10200 nM | GI50 [45]: 37.1 nM | TGI [45]: 12500 nM | GI50 [46]: 142 nM | TGI [46]: 775 nM | GI50 [47]: 37.9 nM | TGI [47]: 175 nM | GI50 [48]: 40.7 nM | TGI [48]: 256 nM | GI50 [49]: 113 nM | TGI [49]: 1680 nM | GI50 [50]: 57.6 nM | TGI [50]: 11700 nM | GI50 [51]: 47.4 nM | TGI [51]: 357 nM | GI50 [52]: 342 nM | TGI [52]: 17300 nM | GI50 [53]: 84.3 nM | TGI [53]: 12100 nM | GI50 [54]: 33.8 nM | TGI [54]: 11300 nM

Cc1cc(-c2ncc(-c3cccnc3)cc2/C=C/c2ccccc2)cnc1-c1cccnc1
GI50 [55]: 3930 nM | GI50 [1]: 2750 nM | TGI [1]: 9250 nM | GI50 [3]: 1930 nM | TGI [3]: 8060 nM | GI50 [4]: 3760 nM | TGI [4]: 12600 nM | GI50 [5]: 6060 nM | GI50 [8]: 3720 nM | GI50 [9]: 6490 nM | GI50 [11]: 1120 nM | TGI [11]: 2570 nM | GI50 [56]: 3000 nM | TGI [56]: 32200 nM | GI50 [12]: 3240 nM | GI50 [13]: 1930 nM | TGI [13]: 3460 nM | GI50 [14]: 2190 nM | TGI [14]: 5420 nM | GI50 [15]: 2370 nM | TGI [15]: 5950 nM | GI50 [16]: 2780 nM | TGI [16]: 9160 nM | GI50 [17]: 6520 nM | GI50 [18]: 2530 nM | TGI [18]: 6850 nM | GI50 [19]: 3680 nM | TGI [19]: 15300 nM | GI50 [21]: 1320 nM | TGI [21]: 2590 nM | GI50 [22]: 2320 nM | TGI [22]: 9630 nM | GI50 [25]: 620 nM | TGI [25]: 2370 nM | GI50 [26]: 3070 nM | TGI [26]: 16700 nM | GI50 [27]: 3800 nM | GI50 [28]: 3820 nM | TGI [28]: 19600 nM | GI50 [29]: 3790 nM | GI50 [57]: 2990 nM | GI50 [31]: 2220 nM | TGI [31]: 5080 nM | GI50 [32]: 3690 nM | GI50 [33]: 3150 nM | GI50 [34]: 1810 nM | TGI [34]: 3550 nM | GI50 [35]: 3330 nM | TGI [35]: > 100000 nM | GI50 [36]: 2020 nM | TGI [36]: 5120 nM | GI50 [37]: 2290 nM | TGI [37]: 5490 nM | GI50 [38]: 3760 nM | GI50 [40]: 1130 nM | TGI [40]: 2340 nM | GI50 [41]: 1600 nM | TGI [41]: 3560 nM | GI50 [42]: 2040 nM | TGI [42]: 4580 nM | GI50 [43]: 3340 nM | GI50 [44]: 3540 nM | GI50 [45]: 3150 nM | TGI [45]: 12100 nM | GI50 [46]: 4150 nM | TGI [46]: 22500 nM | GI50 [47]: 2410 nM | TGI [47]: > 100000 nM | GI50 [49]: 2160 nM | TGI [49]: 7500 nM | GI50 [51]: 1850 nM | TGI [51]: 4110 nM | GI50 [52]: 3040 nM | TGI [52]: 21400 nM | GI50 [53]: 3170 nM | TGI [53]: 11300 nM
